Each molecule was assayed against Collagenase 3 (Homo sapiens, UniProt P45452) (assay: inhibition of collagenase 3 (MMP13) activity – biochemical, autofluorescent compounds, fluorescence, dose response (AID 769)).
`O=S(=O)(Nc1ccc(-c2nc3cccnc3s2)cc1)c1cccs1` gave an IC50 greater than 39.8 µM. Work on `CCOC(=O)CSc1nc(-c2ccc3c(c2)OCO3)ccc1C#N` [2-[[6-(1,3-benzodioxol-5-yl)-3-cyano-2-pyridinyl]thio]acetic acid ethyl ester] yielded an IC50 greater than 39.8 µM. Molecule `COc1ccc(-c2ccc(-c3noc(-c4ccccc4C)n3)c(OC)n2)cc1` [3-(2-methoxy-6-(4-methoxyphenyl)pyridin-3-yl)-5-o-tolyl-1,2,4-oxadiazole] has an IC50 of 3.97 µM. For `Oc1ccc(/N=C/c2ccc(-c3cccs3)s2)cc1` [4-[(5-thiophen-2-yl-2-thiophenyl)methylideneamino]phenol], the IC50 was 1.68 µM. `COc1cc(OC)cc(-c2nnc(Nc3nc4c(F)cccc4s3)o2)c1` [5-(3,5-dimethoxyphenyl)-N-(4-fluorobenzo[d]thiazol-2-yl)-1,3,4-oxadiazol-2-amine] was tested, and the IC50 was 3.52 µM. `Fc1cccc2sc(Nc3nnc(-c4ccccc4)o3)nc12` [(4-fluoro-1,3-benzothiazol-2-yl)-(5-phenyl-1,3,4-oxadiazol-2-yl)amine] was tested, and the IC50 was greater than 39.8 µM. `COc1cccc(-c2nnc(Nc3nc4c(F)cccc4s3)o2)c1` [(4-fluoro-1,3-benzothiazol-2-yl)-[5-(3-methoxyphenyl)-1,3,4-oxadiazol-2-yl]amine] showed an IC50 greater than 39.8 µM. Work on `Cc1nn(-c2ccccc2)c2sc(-c3nnc(S)o3)cc12` [MLS000043319] yielded an IC50 of 0.883 µM.

Reference: BindingDB's records for doi:10.7270/Q2HX1B3F (The Scripps Research Institute Molecular Screening Center, 2007)
